Laboratory results from patent US20030119800A1, “Bone anabolic compounds and methods of use” (priority 2001, published 2003).
Starred links: 1 amine or outer side, 2 acyl side, 3 side chain; linkers in the order of their positions; H or OH if unused. Positions of bridges follow the written chain, without caps; N, C: chain ends. Non-standard residues stand in square brackets, D forms with d. Residues, ends and D or L forms follow the SMILES beside them. Chains are numbered I, II in the order given. Actinocin(9to1) = Cc1c2oc3c(C)ccc(C(=O)[*:1])c3nc-2c(C(=O)[*:2])c(N)c1=O; NMeV = CN[C@H](C(=O)O)C(C)C; Sar = CNCC(=O)O

Tests used:
[1] = tested on: calvaria-derived murine osteoblastic cells; experiment: Etoposide-induced apoptosis of calvaria-derived osteoblastic cells; format: cell-based, mouse; details: for difference in potency in osteoblasts from one sex versus the other: cell preparations from females or males; for etoposide-induced apoptosis in primary cultures of osteoblasts: cells from female or male mice, dose dependent manner; for effect of synthesis inhibitor on the protective effect of E2 on etoposide-induced apoptosis: murine calvaria derived osteoblasts, doses not affecting cell viability, data not shown
Description: HeLa cells were co-transfected with reporter constructs in which SRE or AP-1 drive the expression of secreted alkaline phosphatase (SEAP), along with the wild type ERα (A and B); or its ligand binding domain (E), or E fused to a membrane (E-Mem) or nuclear (E-Nuc) localization sequence (A). A dominant negaitve (dn) MEK or dn Jnk were also introduced into a subset of the ERα transfected cells. […] In FIGS. 1A and 1B, 100% indicates activity in vehicle treated cells. (C) HeLa cells were co-transfected with the ERα and nEGFP and wild type or dn mutants of the indicated transcription factors. […] (D) HeLa cells (upper panel) were transiently co-transfected with the ERα, a nonphosphorylatable dn mutant of Bad. Calvaria-derived murine osteoblastic cells (lower panel) were pre-treated with the P13K inhibitor wortmannin. Cells were then treated as in (C). […] (E) Proposed model for a kinase-mediated non-genotropic regulation of gene transcription and apoptosis by sex steroids.
(§1) Osteoblastic cells (A) were isolated from calvaria of neonatal female or male mice, the sex of which was determined by Southern blot analysis of liver DNA with a Y chromosome specific cDNA probe; and cultured as previously described. The ability of the indicated steroids to protect against etoposide induced apoptosis was determined as in FIG. 1D, lower panel. (B) Osteoclasts were generated in bone marrow cultures from adult female or male mice, and then treated with vehicle or the indicated concentrations of steroids for 24 hours at which point the number of cells undergoing apoptosis was determined. Representative results from 1 of 4 females and 1 of 4 males examined are shown. Each point represents the mean of triplicate determinations±SD. *p<0.05 vs. vehicle, by ANOVA. (C & D) Eight-month old Swiss Webster mice (n=8-10 per group) were sham-operated, ovariectomized (OVX) or orchidectomized (ORX). […] BMD and wet uterine or seminal vesicle weight was determined six weeks later. Bars indicate means±SD. *p<0.05 vs OVX or ORX.
(§2) Quantification of apoptotic cells in vitro: Apoptosis of HeLa cells or calvaria-derived osteoblastic cells was quantified by direct visualization of changes in nuclear morphology or by trypan blue staining, respectively, as previously described (Kousteni et al, 2001). Apoptosis of osteoclasts, derived from bone marrow cells cultured with 30 ng/ml M-CSF and 30 ng/ml soluble RANK ligand, was quantified by measuring caspase 3 activity as previously described (Weinstein et al, 2002).

[2] = tested on: osteoclasts generated in bone marrow cultures from adult female or male mice; experiment: Osteoclast apoptosis in bone marrow derived cultures; format: cell-based, mouse
Procedure: as §1
FIG. 8 illustrates the pro-apoptotic effect of sex steroids on osteoclasts requires Src/ERK signaling. […] After 24 hours, the percentage of apoptotic osteoclasts was determined as in FIG. 7.
as §2

[3] = tested on: OVX or ORX Swiss Webster mice; experiment: Gonadectomized (OVX or ORX) Swiss Webster mice with 60-day slow release pellets: bone and reproductive tissues; format: in vivo, mouse; details: for gonadectomy-induced changes (osteoblast apoptosis, loss of BMD, osteoblastogenesis and osteoclastogenesis): replacement dose pellets (E2 0.025 mg, DHT 10 mg), OVX or ORX, irrespective of sex
Procedure: as §1
FIG. 9 illustrates the equivalence of the skeletal actions of estrogens and androgens in female and male mice. […] Six weeks later, osteoblast apoptosis in histologic sections of the vertebrae (A), osteoblastogenesis and osteoclastogenesis in ex vivo bone marrow cultures (B and C), and serum osteocalcin concentration (D) were determined. Bars indicate means±SD, *p<0.05 vs OVX or ORX.
Global, spine and hindlimb BMD was determined at both 4 and 6 weeks later in the experiment with the 8 month old females, and at 6 weeks only in the experiments with the 6 month old females and males (A, B and C). The 6 week BMD data in females (B) represent pooled values from the two experiments with the 6- and the 8-month old mice.
Longitudinal undecalcified sections of the distal femur are shown in (B). […] Osteoblast apoptosis in sections of L1-L4 vertebrae from females (8 month old) and males (C).
Histomorphometric analysis of L1-L4 vertebrae from 6 month old females (A-F) and pooled serum osteocalcin levels from the 6 and 8 month old females (G). […] The ANGELS compounds described herein are useful for maintaining and/or increasing bone mass and/or strength and/or density in mammals. Mammals, preferably humans, in need of such compounds can include those suffering from such conditions as female osteoporosis (post menopausal), male osteoporosis, glucocorticoid-induced osteoporosis, immobilization and aging-related osteoporosis, idiopathic or juvenile osteoporosis, transplantation-related osteoporosis, and alveolar ridge bone loss. In addition, the compounds described herein are particularly useful for administration to subjects that are unable or unwilling to tolerate therapies that have a masculinizing or feminizing effect. For example, subjects such as breast cancer patients (especially those with bone metastasis on gonadotropin […] hormone (GnRH) or ovariectomized), prostrate cancer patients (especially those on GnRH/castration therapy), and myeloma/lymphoma patients are frequently poor candidates for treatment with estrogen or androgens because of the risk of a recurrence of the underlying condition, e.g., cancer.
Wet uterine (A) or seminal vesicle weight (B) of female and male mice described in FIG. 11. […] Note the following morphologic differences in the uteri of OVX- and OVX+4-estren-3α,17β-diol-treated mice as compared to uteri from sham-operated and OVX+E2-treated mice: thin and atrophic columnar epithelium; compact stroma; decreased number of glands; decreased nucleus to cytoplasmic ratio in the columnar epithelial, endometrial stroma, and myometrial cells; and absence of mitotic activity. (D) Proliferation of MCF-7 cells was determined by ^3H-thymidine uptake.
For these studies, mature Swiss Webster mice (8 month old), n=8-10 per group, were sham-operated or gonadectomized (GNDX). […]

[4] = tested on: cells from mice lacking both ERα and ERβ (DERKO); details: cited from earlier work
DERKO mice = details: mouse, in vivo; cited from earlier work
Bad = experiment: E2-induced phosphorylation of Bad; format: cell-based; details: studies not shown (Kousteni et al, 2002)
ERα = target: T1, ERα (Homo sapiens, UniProt P03372); experiment: SRE-SEAP and AP-1-SEAP reporter assays in HeLa cells transfected with ERα; format: cell-based; details: steroids 10^−8 M for 15 minutes (E2 as little as five minutes), SEAP six hours later
T1 construct: HeLa cells transfected with the full length ERα; expressed in transfected cells; host or cells: HeLa
T1 sequence (P03372 whole entry): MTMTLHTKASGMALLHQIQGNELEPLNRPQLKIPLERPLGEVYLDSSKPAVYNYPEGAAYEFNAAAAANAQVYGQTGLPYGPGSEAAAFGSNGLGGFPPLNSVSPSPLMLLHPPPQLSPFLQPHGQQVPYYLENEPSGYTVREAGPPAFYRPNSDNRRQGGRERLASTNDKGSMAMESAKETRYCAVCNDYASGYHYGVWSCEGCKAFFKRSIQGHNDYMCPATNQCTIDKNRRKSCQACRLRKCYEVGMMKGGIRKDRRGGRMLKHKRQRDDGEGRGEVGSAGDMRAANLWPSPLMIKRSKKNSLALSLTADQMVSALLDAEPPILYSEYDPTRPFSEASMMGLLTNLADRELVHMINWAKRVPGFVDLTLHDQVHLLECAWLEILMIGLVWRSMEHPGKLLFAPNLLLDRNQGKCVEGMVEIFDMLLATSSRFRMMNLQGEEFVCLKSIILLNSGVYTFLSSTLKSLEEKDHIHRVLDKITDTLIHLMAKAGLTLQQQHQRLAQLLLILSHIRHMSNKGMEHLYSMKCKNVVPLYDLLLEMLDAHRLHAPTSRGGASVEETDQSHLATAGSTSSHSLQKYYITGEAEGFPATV
Procedure: HeLa cells were co-transfected with reporter constructs in which SRE or AP-1 drive the expression of secreted alkaline phosphatase (SEAP), along with the wild type ERα (A and B); or its ligand binding domain (E), or E fused to a membrane (E-Mem) or nuclear (E-Nuc) localization sequence (A). A dominant negaitve (dn) MEK or dn Jnk were also introduced into a subset of the ERα transfected cells. Cells were exposed to vehicle or the indicated steroids (10^−8M) for 15 minutes. The steroid containing media were then removed, the cells were washed twice, and the cultures were continued in fresh medium without steroids. Supernatants were collected six hours later and SEAP activity was assayed. In FIGS. 1A and 1B, 100% indicates activity in vehicle treated cells. (C) HeLa cells were co-transfected with the ERα and nEGFP and wild type or dn mutants of the indicated transcription factors. […] (D) HeLa cells (upper panel) were transiently co-transfected with the ERα, a nonphosphorylatable dn mutant of Bad. […] Cells were then treated as in (C).
Transient transfections and reporter assays: HeLa cells were transfected using Lipofectamine Plus (Life Technologies Inc.). For reporter assays (luciferase or secreated alkaline phosphatase SEAP), serum-starved cells were treated with the indicated steroids for 15 min after which the steroid-containing media were removed, cells washed twice with 1% BSA in PBS, and fresh media without steroid were added. SEAP or luciferase assays were performed 6 h later using the Great EscAPe SEAP Chemiluminescence Kit (Clontech, Palo Alto, Calif.) or the dual luciferase Kit (Promega, Madison, Wis.), respectively, according to the manufacturer's instructions. Both reporter activities were normalized to renilla luciferase activity.

Question: What does the source list for C[C@]12CCC(=O)C[C@@H]1CC[C@@H]1[C@@H]2CC[C@]2(C)[C@@H](O)CC[C@@H]12 [DHT, dyhydrotestosterone]?
Answer: difference in potency in osteoblasts from one sex versus the other [1]: no difference; etoposide-induced apoptosis in primary cultures of osteoblasts [1]: attenuated etoposide-induced apoptosis; difference in potency in osteoclasts from females and males [2]: no difference; bone compression strength in the vertebrae, male mice ([3]; L5, ORX): equally effective; BMD values in the spine versus the untreated ORX group ([3]; ORX males, 6 weeks): not; wet uterine weight ([3]; OVX females, pellets DHT 10 mg or 4-estren-3α,17β-diol 7.6 mg): did restore; gonadectomy-induced changes (osteoblast apoptosis, loss of BMD, osteoblastogenesis and osteoclastogenesis) [3]: effectively prevented

Question: For C[C@]12CC[C@@H]3c4ccc(O)cc4CC[C@H]3[C@@H]1CC[C@@H]2O [E2, 17β-estradiol], which “difference in potency in osteoblasts from one sex versus the other” value [1] is on record?
Answer: Its value is “no difference”.

Question: And the “etoposide-induced apoptosis in primary cultures of osteoblasts” value [1]?
Answer: The value was “attenuated etoposide-induced apoptosis”.

Question: What about the “difference in potency in osteoclasts from females and males” value [2] of the same compound?
Answer: Its value is “no difference”.

Question: And the “effect on the bone marrow cavity” value ([3]; 4-estren-3α,17β-diol 7.6 mg pellet, E2 pharmacologic dose 100× the replacement dose)?
Answer: Its value is “closing the bone marrow cavity”.

Question: And the “longitudinal undecalcified sections of the distal femur” value ([3]; 4-estren-3α,17β-diol at 300× ERT versus vehicle or E2 1× ERT, E2 at 100× ERT)?
Answer: Its value is “cancellous sclerosis”.

Question: What about the seminal vesicle weight ([3]; ORX males, pellets E2 0.025 mg or 4-estren-3α,17β-diol 7.6 mg) of the same compound?
Answer: The seminal vesicle weight was “failed to restore”.

Question: What about the osteoclast number ([3]; as compared to the OVX group) of the same compound?
Answer: The osteoclast number was “suppressed”.

Question: And the “rate of bone formation” value ([3]; as compared to the OVX group)?
Answer: Its value is “suppressed”.

Question: And the “gonadectomy-induced changes (osteoblast apoptosis, loss of BMD, osteoblastogenesis and osteoclastogenesis)” value [3]?
Answer: The value was “effectively prevented”.

Question: And the “ERK phosphorylation in DERKO cells” value [4]?
Answer: The value was “stimulates”.

Question: What about the “osteoblast apoptosis in DERKO cells” value [4] of the same compound?
Answer: Its value is “prevents”.

Question: What about the “osteoclast apoptosis in DERKO cells” value [4] of the same compound?
Answer: Its value is “stimulates”.

Question: What about the “bone loss following OVX in DERKO mice” value (DERKO mice) of the same compound?
Answer: The value was “prevented”.

Question: What does the source list for C[C@]12CC[C@@H]3c4ccc(O)cc4C[C@@H](CCCCCCCCC[S+]([O-])CCCC(F)(F)C(F)(F)F)[C@H]3[C@@H]1CC[C@@H]2O (stereo partly drawn) [ICI 182,780]?
Answer: effect of antagonist on the effects of E2 or DHT on the lifespan of osteoblasts [1]: blocked; effect of antagonist on the effects of E2 or DHT on the lifespan of osteoclasts [2]: blocked; effect of antagonist on the effects of E2 in the DERKO cells [4]: prevented

Question: Which “effect of inhibitor on E2-induced phosphorylation of Bad” value (Bad) does the source give for COc1cccc(-c2cc(=O)c3ccccc3o2)c1N [PD98059] here?
Answer: Its value is “abolished”.

Question: Which “effect of inhibitor on the pro-apoptotic effects of the sex steroids and 4-estren-3α,17β-diol on osteoclasts” value ([2]; pre-treatment for 1 hour prior to E2 or DHT) does the source give for Cc1ccc(-c2nn(C(C)(C)C)c3ncnc(N)c23)cc1 [PP1] here?
Answer: The value was “abrogated”.

Question: With C[S+]([O-])c1ccc(-c2nc(-c3ccncc3)c(-c3ccc(F)cc3)[nH]2)cc1 (stereo not drawn) [SB203580] as the compound, how does the “effect of kinase inhibitor on the anti-apoptotic effect of E2 and of 4-estren-3α,17β-diol” value ([1]; FIG. 1D, pre-treated calvaria-derived murine osteoblastic cells) read?
Answer: The value was “not”.

Question: Which “effect of synthesis inhibitor on the protective effect of E2 on etoposide-induced apoptosis” value [1] does the source give for Cc1c2oc3c(C)ccc(C(=O)N[C@@H]4C(=O)N[C@H](C(C)C)C(=O)N5CCC[C@H]5C(=O)N(C)CC(=O)N(C)[C@@H](C(C)C)C(=O)O[C@@H]4C)c3nc-2c(C(=O)N[C@@H]2C(=O)N[C@H](C(C)C)C(=O)N3CCC[C@H]3C(=O)N(C)CC(=O)N(C)[C@@H](C(C)C)C(=O)O[C@@H]2C)c(N)c1=O [actinomycin D] (I: T[dV]P[Sar][NMeV] / II: T[dV]P[Sar][NMeV]; ester I:1-I:C, II:1-II:C; linker I:N-II:N via Actinocin(9to1)) here?
Answer: The value was “abrogated”.

Question: For C[C@@H]1C[C@@H]([C@H](O)CC2CC(=O)NC(=O)C2)C(=O)[C@@H](C)C1 [cyclohexamide], which “effect of synthesis inhibitor on the protective effect of E2 on etoposide-induced apoptosis” value [1] is on record?
Answer: The value was “abrogated”.

Question: Which results are given for c1cn[nH]c1 [pyrazole]?
Answer: AP-1-dependent transcriptional activity (AP-1-SEAP) (ERα): not; SRE-dependent transcriptional activity (SRE-SEAP) (ERα): not
